# In patent US7034036B2, “Inhibitors of ABC drug transporters at the blood-brain barrier” (Pain Therapeutics, Inc., priority 2000, dated 2006):
# Assays:
# mice [1] = assay: Tail flick anti-nociception, naltrexone given with morphine from day 1 (Groups C, D, combined analysis); format: in vivo; design: Enhancement of Latency (tail flick) / Enhancement of Latency by Naltrexone (tail flick): unit not given here
# Procedure: In a third series of experiments, 40 male mice were randomized into 5 groups of eight. All mice were administered single 3 mg/kg morphine daily (b.i.d.), beginning on Day 1.
# In a final series of experiments, 40 female mice were randomized into 5 groups of eight. All mice were administered single 3 mg/kg morphine daily (b.i.d.), beginning on Day 1.
# mice [2] = assay: Tolerance to oxycodone in mice, parallel experiments; format: in vivo
structure (smiles),measurement,setting,value
"O=C1CC[C@@]2(O)[C@H]3Cc4ccc(O)c5c4[C@@]2(CCN3CC2CC2)[C@H]1O5 [Naltrexone, naltrexone]",Enhancement of Latency by Naltrexone (tail flick),"mice [1]; female mice, Group 4: morphine 3 mg/kg + naltrexone 300 ng/kg b.i.d. from day 1, Day 7",0.2
same,Enhancement of Latency by Naltrexone (tail flick),"mice [1]; female mice, Group 4: morphine 3 mg/kg + naltrexone 300 ng/kg b.i.d. from day 1, Day 10",5.9
same,Enhancement of Latency by Naltrexone (tail flick),"mice [1]; female mice, Group 4: morphine 3 mg/kg + naltrexone 300 ng/kg b.i.d. from day 1, Day 11, single bolus 10 μg/kg naltrexone in addition",0.8
same,Enhancement of Latency by Naltrexone (tail flick),"mice [1]; female mice, Group 5: morphine 3 mg/kg + naltrexone 3000 ng/kg b.i.d. from day 1, Day 1",12.3
same,Enhancement of Latency by Naltrexone (tail flick),"mice [1]; female mice, Group 5: morphine 3 mg/kg + naltrexone 3000 ng/kg b.i.d. from day 1, Day 3",9.6
same,Enhancement of Latency by Naltrexone (tail flick),"mice [1]; female mice, Group 5: morphine 3 mg/kg + naltrexone 3000 ng/kg b.i.d. from day 1, Day 5",3.4
same,Enhancement of Latency by Naltrexone (tail flick),"mice [1]; female mice, Group 5: morphine 3 mg/kg + naltrexone 3000 ng/kg b.i.d. from day 1, Day 7",1.9
same,Enhancement of Latency by Naltrexone (tail flick),"mice [1]; female mice, Group 5: morphine 3 mg/kg + naltrexone 3000 ng/kg b.i.d. from day 1, Day 10",6.7
same,Enhancement of Latency by Naltrexone (tail flick),"mice [1]; female mice, Group 5: morphine 3 mg/kg + naltrexone 3000 ng/kg b.i.d. from day 1, Day 11, single bolus 10 μg/kg naltrexone in addition",−0.7
same,Latency versus other doses,"mice [1]; female mice, dose 0.3 ng/kg as printed, not significantly different from 0.03 or 3 ng/kg",gave the longest latency
same,Latency versus other concentrations,"mice [1]; male mice, Groups A and C combined, days 8 and 10, naltrexone at 300 ng",gave the greatest latency
same,Enhancement of Latency by Naltrexone (tail flick),"mice [1]; male mice, Group 2: morphine 3 mg/kg + naltrexone 3 ng/kg b.i.d. from day 1, Day 1",13.3
same,Enhancement of Latency by Naltrexone (tail flick),"mice [1]; male mice, Group 2: morphine 3 mg/kg + naltrexone 3 ng/kg b.i.d. from day 1, Day 3",7.5
same,Enhancement of Latency by Naltrexone (tail flick),"mice [1]; male mice, Group 2: morphine 3 mg/kg + naltrexone 3 ng/kg b.i.d. from day 1, Day 5",4.5
same,Enhancement of Latency by Naltrexone (tail flick),"mice [1]; male mice, Group 2: morphine 3 mg/kg + naltrexone 3 ng/kg b.i.d. from day 1, Day 8",5.5
same,Enhancement of Latency by Naltrexone (tail flick),"mice [1]; male mice, Group 2: morphine 3 mg/kg + naltrexone 3 ng/kg b.i.d. from day 1, Day 10",2.7
same,Enhancement of Latency by Naltrexone (tail flick),"mice [1]; male mice, Group 2: morphine 3 mg/kg + naltrexone 3 ng/kg b.i.d. from day 1, Day 12, single bolus 10 μg/kg naltrexone to every mouse",1.1
same,Enhancement of Latency by Naltrexone (tail flick),"mice [1]; male mice, Group 3: morphine 3 mg/kg + naltrexone 30 ng/kg b.i.d. from day 1, Day 1",12.4
same,Enhancement of Latency by Naltrexone (tail flick),"mice [1]; male mice, Group 3: morphine 3 mg/kg + naltrexone 30 ng/kg b.i.d. from day 1, Day 3",9.3
same,Enhancement of Latency by Naltrexone (tail flick),"mice [1]; male mice, Group 3: morphine 3 mg/kg + naltrexone 30 ng/kg b.i.d. from day 1, Day 5",7.5
same,Enhancement of Latency by Naltrexone (tail flick),"mice [1]; male mice, Group 3: morphine 3 mg/kg + naltrexone 30 ng/kg b.i.d. from day 1, Day 8",7.1
same,Enhancement of Latency by Naltrexone (tail flick),"mice [1]; male mice, Group 3: morphine 3 mg/kg + naltrexone 30 ng/kg b.i.d. from day 1, Day 10",3.2
same,Enhancement of Latency by Naltrexone (tail flick),"mice [1]; male mice, Group 3: morphine 3 mg/kg + naltrexone 30 ng/kg b.i.d. from day 1, Day 12, single bolus 10 μg/kg naltrexone to every mouse",−0.8
same,Enhancement of Latency by Naltrexone (tail flick),"mice [1]; male mice, Group 4: morphine 3 mg/kg + naltrexone 300 ng/kg b.i.d. from day 1, Day 1",16.3
same,Enhancement of Latency by Naltrexone (tail flick),"mice [1]; male mice, Group 4: morphine 3 mg/kg + naltrexone 300 ng/kg b.i.d. from day 1, Day 3",17.1
same,Enhancement of Latency by Naltrexone (tail flick),"mice [1]; male mice, Group 4: morphine 3 mg/kg + naltrexone 300 ng/kg b.i.d. from day 1, Day 5",11.8
same,Enhancement of Latency by Naltrexone (tail flick),"mice [1]; male mice, Group 4: morphine 3 mg/kg + naltrexone 300 ng/kg b.i.d. from day 1, Day 8",9.4
same,Enhancement of Latency by Naltrexone (tail flick),"mice [1]; male mice, Group 4: morphine 3 mg/kg + naltrexone 300 ng/kg b.i.d. from day 1, Day 10",6.1
same,Enhancement of Latency by Naltrexone (tail flick),"mice [1]; male mice, Group 4: morphine 3 mg/kg + naltrexone 300 ng/kg b.i.d. from day 1, Day 12, single bolus 10 μg/kg naltrexone to every mouse",−0.2
same,Enhancement of Latency by Naltrexone (tail flick),"mice [1]; male mice, Group 5: morphine 3 mg/kg + naltrexone 3000 ng/kg b.i.d. from day 1, Day 1",13.5
same,Enhancement of Latency by Naltrexone (tail flick),"mice [1]; male mice, Group 5: morphine 3 mg/kg + naltrexone 3000 ng/kg b.i.d. from day 1, Day 3",13.0
same,Enhancement of Latency by Naltrexone (tail flick),"mice [1]; male mice, Group 5: morphine 3 mg/kg + naltrexone 3000 ng/kg b.i.d. from day 1, Day 5",12.0
same,Enhancement of Latency by Naltrexone (tail flick),"mice [1]; male mice, Group 5: morphine 3 mg/kg + naltrexone 3000 ng/kg b.i.d. from day 1, Day 8",10.4
same,Enhancement of Latency by Naltrexone (tail flick),"mice [1]; male mice, Group 5: morphine 3 mg/kg + naltrexone 3000 ng/kg b.i.d. from day 1, Day 10",7.4
same,Enhancement of Latency by Naltrexone (tail flick),"mice [1]; male mice, Group 5: morphine 3 mg/kg + naltrexone 3000 ng/kg b.i.d. from day 1, Day 12, single bolus 10 μg/kg naltrexone to every mouse",−0.7
same,Enhancement of latency versus other concentrations,"mice [1]; male mice, naltrexone at 300 ng with morphine 3 mg/kg from day 1, Days 1, 3, 5, 8, 10",significantly greater
same,Latency versus other concentrations,"mice [1]; males and females combined, naltrexone 30 ng/kg and 300 ng/kg, days 1, 3, 5, 6, 8, 10",significantly longer latency
same,Development of tolerance to morphine,mice [1]; naltrexone in combination with morphine,prevents the mice from developing a tolerance to morphine
same,Development of tolerance to oxycodone,"mice [2]; female mice, 1 or 5 mg/kg oxycodone with 1 pg/kg, 1 ng/kg or 1 μg/kg naltrexone or 1 pg/kg nor-BNI",None of the mice developed tolerance
same,Development of tolerance to oxycodone,"mice [2]; male mice, 0.1 mg/kg oxycodone plus 1 ng/kg naltrexone, 1 ng/kg nalmefene or 1 pg/kg nor-BNI",did not develop tolerance
